Source: PubChem BioAssay AID260 (DTP/NCI, 2004)
Where “and” joins values, the source holds several entries; their conditions need not be identical. Equal entries are not always repeated. Inconclusive results and toxic doses are left out.

Tested on: CD2F1 mice, intracerebral L1210 leukemia, survival T/C
Test: NCI In Vivo Anticancer Drug Screen. Data for tumor model L1210 Leukemia (intracerebral) in CD2F1 (CDF1) mice
Conditions: higher = longer survival
Protocol: The antitumor activity of compounds was measured in mice bearing transplantable tumors. Survival or tumor size were measured and the results are expressed as the measurement made in the treated group (T) divided by the measurement made in the vehicle treated control group (C). The tumor model used in this assay is L1210 Leukemia (intracerebral) in CD2F1 (CDF1) mice

`Cc1ncc(CO)c(C)c1O` was tested, and the T/C (endpoint: median survival time, dose: 128.0 mg/kg/injection, schedule: Q01DX005 (ip), vehicle: Klucel (hydroxypropylcellulose) (HPC)) was 105 % of control and 106 % of control and the T/C (endpoint: median survival time, dose: 256.0 mg/kg/injection, schedule: Q01DX005 (ip), vehicle: Klucel (hydroxypropylcellulose) (HPC)) was 111 % of control and 114 % of control.

In the case of `O=c1n(CC2CO2)c(=O)n(CC2CO2)c(=O)n1CC1CO1` (configuration not stated), the T/C (endpoint: median survival time, dose: 16.4 mg/kg/injection, schedule: Q01DX009 (ip), vehicle: saline) is reported as 123 % of control, the T/C (endpoint: median survival time, dose: 20.5 mg/kg/injection, schedule: Q01DX009 (ip), vehicle: saline) is reported as 115 % of control and the T/C (endpoint: median survival time, dose: 40.0 mg/kg/injection, schedule: Q01DX009 (ip), vehicle: saline) is reported as 152 % of control. The T/C (endpoint: median survival time, dose: 49.2 mg/kg/injection, schedule: Q01DX001 (ip), vehicle: saline) was 114 % of control, the T/C (endpoint: median survival time, dose: 50.0 mg/kg/injection, schedule: Q01DX009 (ip), vehicle: saline) was 110 % of control and 116 % of control and the T/C (endpoint: median survival time, dose: 61.4 mg/kg/injection, schedule: Q01DX001 (ip), vehicle: saline) was 114 % of control. For the same compound, the T/C (endpoint: median survival time, dose: 70.0 mg/kg/injection, schedule: Q01DX009 (ip), vehicle: saline) was 109 % of control, the T/C (endpoint: median survival time, dose: 76.8 mg/kg/injection, schedule: Q01DX001 (ip), vehicle: saline) was 116 % of control and the T/C (endpoint: median survival time, dose: 80.0 mg/kg/injection, schedule: Q01DX009 (ip), vehicle: saline) was 107 % of control. For the same compound, the T/C (endpoint: median survival time, dose: 90.0 mg/kg/injection, schedule: Q01DX009 (ip), vehicle: saline) was 119 % of control and the T/C (endpoint: median survival time, dose: 180.0 mg/kg/injection, schedule: Q01DX009 (ip), vehicle: saline) was 117 % of control.

With `CC1CCC(NC(=O)N(CCCl)N=O)CC1` (configuration not stated) the T/C (endpoint: median survival time, dose: 4.0 mg/kg/injection, schedule: Q01DX001 (ip), vehicle: other) was 123 % of control, the T/C (endpoint: median survival time, dose: 6.25 mg/kg/injection, schedule: Q01DX001 (ip), vehicle: DMSO) was 116 % of control and the T/C (endpoint: median survival time, dose: 6.25 mg/kg/injection, schedule: Q01DX001 (ip), vehicle: saline + alcohol) was 116 % of control. The T/C (endpoint: median survival time, dose: 6.25 mg/kg/injection, schedule: Q01DX001 (oral), vehicle: saline + alcohol) was 109 % of control, the T/C (endpoint: median survival time, dose: 12.5 mg/kg/injection, schedule: Q01DX001 (ip), vehicle: DMSO) was 116 % of control and the T/C (endpoint: median survival time, dose: 12.5 mg/kg/injection, schedule: Q01DX001 (ip), vehicle: saline + alcohol) was 119 % of control. For the same compound, the T/C (endpoint: median survival time, dose: 12.5 mg/kg/injection, schedule: Q01DX001 (oral), vehicle: saline + alcohol) was 109 % of control, the T/C (endpoint: median survival time, dose: 16.0 mg/kg/injection, schedule: Q01DX001 (ip), vehicle: other) was 166 % of control and the T/C (endpoint: median survival time, dose: 25.0 mg/kg/injection, schedule: Q01DX001 (ip), vehicle: saline + alcohol) was 166 % of control. The T/C (endpoint: median survival time, dose: 25.0 mg/kg/injection, schedule: Q01DX001 (oral), vehicle: saline + alcohol) was 120 % of control, the T/C (endpoint: median survival time, dose: 32.0 mg/kg/injection, schedule: Q01DX001 (ip), vehicle: other) was 333 % of control and the T/C (endpoint: median survival time, dose: 50.0 mg/kg/injection, schedule: Q01DX001 (ip), vehicle: DMSO) was 123 % of control. The T/C (endpoint: median survival time, dose: 50.0 mg/kg/injection, schedule: Q01DX001 (ip), vehicle: saline + alcohol) was 155 % of control, the T/C (endpoint: median survival time, dose: 64.0 mg/kg/injection, schedule: Q01DX001 (ip), vehicle: other) was 88 % of control and the T/C (endpoint: median survival time, dose: 100.0 mg/kg/injection, schedule: Q01DX001 (ip), vehicle: DMSO) was 169 % of control. For the same compound, the T/C (endpoint: median survival time, dose: 100.0 mg/kg/injection, schedule: Q01DX001 (ip), vehicle: saline + alcohol) was 92 % of control and the T/C (endpoint: median survival time, dose: 100.0 mg/kg/injection, schedule: Q01DX001 (oral), vehicle: saline + alcohol) was 246 % of control.

For `C[C@]12CCC(=O)C=C1CC[C@@H]1[C@@H]2[C@@H](O)C[C@@]2(C)[C@H]1CC[C@]2(O)C(=O)COP(=O)(O)OCC1OC(n2ccc(N)nc2=O)C(O)C1O` (some centres not stated), the T/C (endpoint: median survival time, dose: 18.75 mg/kg/injection, schedule: Q01DX005 (ip), vehicle: other) was 116 % of control, the T/C (endpoint: median survival time, dose: 150.0 mg/kg/injection, schedule: Q01DX005 (ip), vehicle: other) was 160 % of control and the T/C (endpoint: median survival time, dose: 300.0 mg/kg/injection, schedule: Q01DX005 (ip), vehicle: other) was 169 % of control.

In the case of `CCCCCC(=O)O[C@]1(C(C)=O)CC[C@H]2[C@@H]3CCC4=CC(=O)CC[C@]4(C)[C@H]3CC[C@@]21C`, the T/C (endpoint: median survival time, dose: 8.0 mg/kg/injection, schedule: Q01DX009 (ip), vehicle: saline with Tween-80) is reported as 117 % of control, the T/C (endpoint: median survival time, dose: 16.0 mg/kg/injection, schedule: Q01DX009 (ip), vehicle: saline with Tween-80) is reported as 104 % of control and the T/C (endpoint: median survival time, dose: 32.0 mg/kg/injection, schedule: Q01DX009 (ip), vehicle: saline with Tween-80) is reported as 114 % of control. For the same compound, the T/C (endpoint: median survival time, dose: 64.0 mg/kg/injection, schedule: Q01DX009 (ip), vehicle: saline with Tween-80) was 94 % of control, the T/C (endpoint: median survival time, dose: 128.0 mg/kg/injection, schedule: Q01DX009 (ip), vehicle: saline with Tween-80) was 93 % of control and the T/C (endpoint: median survival time, dose: 256.0 mg/kg/injection, schedule: Q01DX009 (ip), vehicle: saline with Tween-80) was 94 % of control. For the same compound, the T/C (endpoint: median survival time, dose: 512.0 mg/kg/injection, schedule: Q01DX009 (ip), vehicle: saline with Tween-80) was 107 % of control.

In the case of `CN(C)N=Nc1ccc(C(N)=O)cc1`, the T/C (endpoint: median survival time, dose: 8.0 mg/kg/injection, schedule: Q01DX005 (ip), vehicle: saline with Tween-80) is reported as 104 % of control, the T/C (endpoint: median survival time, dose: 16.0 mg/kg/injection, schedule: Q01DX005 (ip), vehicle: saline with Tween-80) is reported as 113 % of control and the T/C (endpoint: median survival time, dose: 32.0 mg/kg/injection, schedule: Q01DX005 (ip), vehicle: saline with Tween-80) is reported as 121 % of control. For the same compound, the T/C (endpoint: median survival time, dose: 128.0 mg/kg/injection, schedule: Q01DX005 (ip), vehicle: saline with Tween-80) was 106 % of control.

`CNc1nc(N(C)C)nc(N(C)C)n1` was tested, and the T/C (endpoint: median survival time, dose: 12.5 mg/kg/injection, schedule: Q01DX009 (ip), vehicle: saline) was 98 % of control and 114 % of control.

For `CC1C[C@@H](O)C(NC(=O)N(CCCl)N=O)[C@@H](O)C1` (some centres not stated), the T/C (endpoint: mean survival time, dose: 6.0 mg/kg/injection, schedule: Q01DX001 (ip), vehicle: saline) was 123 % of control, the T/C (endpoint: mean survival time, dose: 13.0 mg/kg/injection, schedule: Q01DX001 (ip), vehicle: saline) was 154 % of control and the T/C (endpoint: mean survival time, dose: 20.0 mg/kg/injection, schedule: Q01DX001 (ip), vehicle: saline) was 332 % of control. The T/C (endpoint: mean survival time, dose: 30.0 mg/kg/injection, schedule: Q01DX001 (ip), vehicle: saline) was 186 % of control and the T/C (endpoint: mean survival time, dose: 45.0 mg/kg/injection, schedule: Q01DX001 (ip), vehicle: saline) was 157 % of control.

For `CN(CCO)C1=C(N2CC2)C(=O)C(N(C)CCO)=C(N2CC2)C1=O`, the T/C (endpoint: mean survival time, dose: 0.5 mg/kg/injection, schedule: Q01DX009 (ip), vehicle: saline) was 106 % of control and 109 % of control, the T/C (endpoint: mean survival time, dose: 1.0 mg/kg/injection, schedule: Q01DX009 (ip), vehicle: saline) was 111 % of control and the T/C (endpoint: mean survival time, dose: 4.0 mg/kg/injection, schedule: Q01DX009 (ip), vehicle: saline) was 101 % of control.

In the case of `C[C@H](CN1CC(=O)NC(=O)C1)N1CC(=O)NC(=O)C1`, the T/C (endpoint: mean survival time, dose: 64.0 mg/kg/injection, schedule: Q01DX009 (ip), vehicle: water) is reported as 159 % of control, the T/C (endpoint: mean survival time, dose: 128.0 mg/kg/injection, schedule: Q01DX009 (ip), vehicle: water) is reported as 109 % of control and the T/C (endpoint: mean survival time, dose: 256.0 mg/kg/injection, schedule: Q01DX009 (ip), vehicle: water) is reported as 90 % of control.

For `CN(Cc1cnc2nc(N)nc(N)c2n1)c1ccc(C(=O)N[C@@H](CCC(=O)O)C(=O)O)cc1`, the T/C (endpoint: median survival time, dose: 1.2 mg/kg/injection, schedule: Q04DX003 (ip), vehicle: saline) was 114 % of control, the T/C (endpoint: median survival time, dose: 2.3 mg/kg/injection, schedule: Q04DX003 (ip), vehicle: saline) was 121 % of control and the T/C (endpoint: median survival time, dose: 18.4 mg/kg/injection, schedule: Q04DX003 (ip), vehicle: saline) was 164 % of control. The T/C (endpoint: median survival time, dose: 36.8 mg/kg/injection, schedule: Q04DX003 (ip), vehicle: saline) was 164 % of control.

`Cc1cn(C2CC(O)C(CO)O2)c(=O)[nH]c1=O` (configuration not stated) was tested, and the T/C (endpoint: median survival time, dose: 100.0 mg/kg/injection, schedule: Q01DX009 (ip), vehicle: saline with Tween-80) was 104 % of control, the T/C (endpoint: median survival time, dose: 100.0 mg/kg/injection, schedule: Q01DX009 (ip), vehicle: saline) was 100 % of control and 103 % of control and the T/C (endpoint: median survival time, dose: 200.0 mg/kg/injection, schedule: Q01DX009 (ip), vehicle: saline with Tween-80) was 107 % of control. The T/C (endpoint: median survival time, dose: 200.0 mg/kg/injection, schedule: Q01DX009 (ip), vehicle: saline) was 98 % of control and 100 % of control, the T/C (endpoint: median survival time, dose: 400.0 mg/kg/injection, schedule: Q01DX009 (ip), vehicle: saline with Tween-80) was 109 % of control and the T/C (endpoint: median survival time, dose: 400.0 mg/kg/injection, schedule: Q01DX009 (ip), vehicle: saline) was 101 % of control. For the same compound, the T/C (endpoint: median survival time, dose: 800.0 mg/kg/injection, schedule: Q01DX009 (ip), vehicle: saline with Tween-80) was 114 % of control, the T/C (endpoint: median survival time, dose: 800.0 mg/kg/injection, schedule: Q01DX009 (ip), vehicle: saline) was 103 % of control and 113 % of control and the T/C (endpoint: median survival time, dose: 1600.0 mg/kg/injection, schedule: Q01DX009 (ip), vehicle: saline with Tween-80) was 106 % of control.

For `O=C(Nc1ccccc1)c1c(O)[nH]c(=S)[nH]c1=O`, the T/C (endpoint: median survival time, dose: 12.5 mg/kg/injection, schedule: Q01DX009 (ip), vehicle: saline with Tween-80) was 94 % of control, the T/C (endpoint: median survival time, dose: 25.0 mg/kg/injection, schedule: Q01DX009 (ip), vehicle: saline with Tween-80) was 98 % of control and the T/C (endpoint: median survival time, dose: 50.0 mg/kg/injection, schedule: Q01DX009 (ip), vehicle: saline with Tween-80) was 113 % of control.
